The test system of one data set is Hepatitis B virus (HBV). As to the kind of experiment: Activity for inhibiting proliferation of Hepatitis B virus (HBV): inhibition of HBV-DNA synthesis in HB611 cells. It is filed as cell-based. The following applies: read-out: Inhibitory ratio against HBV-DNA synthesis (%). The procedure: Activity for inhibiting proliferation of Hepatitis B virus (HBV)
Inhibitory activity of the compounds of the present invention against proliferation of HBV was measured by a known method (K. Ueda, et al., VIROLOGY, 169, 213-216 (1989)).
(§1) 2×10^4 HB611 cells (recombinant human liver cancer cells producing HBV) were cultured in Dulbecco's ME medium containing 10% fetal bovine serum, streptomycin (100 μg/ml), penicillin (100 IU/ml), and Geneteicin (trade name of an antibiotic sold by Life Technologies, 0.2 mg/ml) at 37° C. The medium was changed with fresh medium on the second day and fifth day of the culture, and then changed with a medium containing a test compound at a final concentration of 10 μM or 1 μM on the 8th, 11th and 14th days of the culture. DNA of the cells were collected on the 17th day of the culture. Amounts of HBV-DNA in the cells were measured by Southern blotting method and inhibitory rates against HBV-DNA synthesis were determined. Concentrations of compounds required for 50% death of HB611 cells were determined by cell titer 96 (trademark of Promega Corp.). As references, the same test was carried out by using PMEA and its bis(pivaloyloxymethyl ester). Compound Nos. in Table 2 correspond to those in Table 1.

The nature of data set [1]: Cytotoxicity for HB611 cells (cell titer 96). The following applies: human; 50% death of HB611 cells; read-out: 50% Cytotoxic concentration for HB611 cells. In kind it is cell-based, human. As for the experimental part:
as §1

The test system of another data set is HBV. As to the kind of experiment: Inhibitory effect on HBV proliferation in a serum of a rat orally administered with a test compound (HB611 cells cultured with 5% serum). In kind it is cell-based, Hepatitis B virus. The following applies: 5% serum in medium. The procedure:
Inhibitory effect on HBV proliferation in a serum of a rat orally administered with a test compound
A group consisting of three rats was orally administered with a test compound at a dose of 1 g/kg or 0.3 g/kg by a single oral administration. Blood of the rats was collected one hour after the administration and serum samples were prepared.
2×10^4 HB611 cells were cultured in Dulbecco's ME medium containing 10% fetal bovine serum, streptomycin (100 μg/ml), penicillin (100 IU/ml) and Geneteicin (0.2 mg/ml) at 37° C. The medium was changed with fresh medium on the second day and fifth day of the culture, and then changed with a medium containing 5% of the above serum (the serum of the rat orally administered with a test compound) on the 8th, 11th and 14th days of the culture. DNA of the cells were collected on the 17th day of the culture. Amounts of HBV-DNA in the cells were measured by Southern blotting method, and inhibitory ratios against […] synthesis in the cells were determined. As a reference, the same test was carried out by using PMEA. Compound Nos. in Table 3 correspond to those in Table 1.

In data set [2] the test system is polychromatic erythrocytes (bone marrow). As to the kind of experiment: Micronucleus test using mice. It is filed as in vivo. As for the experimental part:
Micronucleus test using mice
A test compound was administered to mice at a dose of 1,000 or 2,000 mg/kg, and bone marrow smear preparations were prepared at 24, 30, 48, and 72 hours after the administration. For a negative control group (0.5% aqueous solution of tragacanth gum) and a positive control group (2 mg/kg of mitomycin C (MMC) was administered as a single intraperitoneal administration), bone marrow smears were prepared at 24 hours after the administration. The samples were stained by the Giemsa's staining method in an ordinary manner, and then 2,000 polychromatic erythrocytes per animal were examined to determine the number of cells having micronuclei and frequency of appearance of micronuclei (%). As statistic analysis, significant difference test was carried out for polychromatic erythrocytes containing micronuclei between the negative control group and the group administered with a test compound according to the stochastic method of Kasternbaum and Bowman.
For comparison, the same test was carried out by using an unsubstituted 6-amino derivative, i.e., 9-[2-[bis(2,2,2-trifluoroethyl)phosphonylmethoxy]ethyl]-2,6-diaminopurine (abbreviated as "DAP"), and PMEA bis(pivaloyloxymethyl ester). Compound Nos. in Table 4 correspond to those in Table 1.

For data set [3], the system named is herpes simplex viruses type-1 (HSV-1). The note with it: literature (Yokota et al.; Votruba et al.); cited from earlier work.
The subject of data set [4] is herpes simplex viruses type-2 (HSV-2). The following applies: literature (Yokota et al.; Votruba et al.); cited from earlier work.
Data set [5] concerns human immunodeficiency virus (HIV). The note with it: literature (Yokota et al.; Votruba et al.); cited from earlier work.
Data set [6] relates to human hepatitis B virus (HBV). The following applies: literature (Yokota et al.; Votruba et al.); cited from earlier work.
The subject of the next data set is HB611 cells. Kind of data set: Cytotoxicity for HB611 cells (cell titer 96). In kind it is cell-based, human. The note with it: 50% death of HB611 cells; read-out: 50% Cytotoxic concentration for HB611 cells. The procedure: as §1
Where [7] appears, read: 408 h, 10 μM, HB611 cells, DNA collected on 17th day.
Setting [8] is: serum of rats 1 h after single oral dose of 0.3 g/kg.
The mark [9] stands for this setting: 408 h, 1 μM, HB611 cells, DNA collected on 17th day.

Structures are written as SMILES. Like-named read-outs stand apart in the source and are kept apart here.

`CCN(CC)c1nc(N)nc2c1ncn2CCOCP(=O)(OCC(F)(F)F)OCC(F)(F)F` [Compound 16, 2-amino-9-[2-[bis(2,2,2-trifluoroethyl)phosphonylmethoxy]-ethyl]-6-(diethylamino)purine]: the inhibition at 10 µM in the data set with Hepatitis B virus (HBV) (setting [7]) stood at 100%. Also, the CC50 in [1] is above 1 mM.

`CCCN(C)c1nc(N)nc2c1ncn2CCOCP(=O)(OCC(F)(F)F)OCC(F)(F)F` [Compound 13, 2-amino-9-[2-[bis(2,2,2-trifluoroethyl)phosphonylmethoxy]-ethyl]-6-(methyl-1-propylamino)purine]: in the data set on Hepatitis B virus (HBV) (setting [7]), the inhibition at 10 µM was determined as 100%. In data set [1], the CC50 is above 1 mM. Further, the “Inhibitory ratio against HBV-DNA synthesis (%)” value (shortened to “Inhibitory ratio … (%)”) in the data set on HBV (setting [8]) stood at 100%. Also, the “Test result (micronucleus test)” value in data set [2] (mouse, in vivo) is “Negative”.

Regarding `Nc1nc(N)c2ncn(CCOCP(=O)(O)O)c2n1` [PMDAP, 9-(2-phosphonylmethoxy)ethyl-2,6-diaminopurine], the “effectiveness against HSV-1” value in data set [3] is recorded as “effective”. Besides, the “effectiveness against HSV-2” value in data set [4] is “effective”. Also, the “effectiveness against HIV” value in data set [5] is “effective”. For the same compound, the “effectiveness against HBV” value in data set [6] was “effective”.

As to `CN(c1ccccc1)c1nc(N)nc2c1ncn2CCOCP(=O)(OCC(F)(F)F)OCC(F)(F)F` [Compound 621, 2-amino-9-[2-[bis(2,2,2-trifluoroethyl)phosphonyl-methoxy]ethyl]-6-(methylphenylamino)purine], the inhibition at 1 µM in the data set on Hepatitis B virus (HBV) (setting [9]) amounted to 68%. Besides, the CC50 in data set [1] was above 1 mM.

`CC(C)(C)C(=O)OCOP(=O)(COCCn1cnc2c(N)ncnc21)OCOC(=O)C(C)(C)C` [PMEA ester, PMEA bis(pivaloyloxymethyl ester), reference compound]: in the data set on Hepatitis B virus (HBV) (HB611, 408 h), the inhibition at 1 µM worked out at 63.7% and the inhibition at 10 µM was found to be 90%. Further, in the data set on HB611 cells, the CC50 turned out to be 0.018 mM. For the same compound, the “Test result (micronucleus test)” value in data set [2] (mice, 1,000 or 2,000 mg/kg, bone marrow at 24, 30, 48, and 72 hours) is on record as “Positive”.

Take `Nc1nc(N)c2ncn(CCOCP(=O)(OCC(F)(F)F)OCC(F)(F)F)c2n1` [DAP, 9-[2-[bis(2,2,2-trifluoroethyl)phosphonylmethoxy]ethyl]-2,6-diaminopurine, reference compound]: in data set [2] (mouse, in vivo), the “Test result (micronucleus test)” value was “Positive”.

For the compound `CN(C)c1nc(N)nc2c1nnn2CCOCP(=O)(OCC(F)(F)F)OCC(F)(F)F` [Compound 21, 2-amino-8-aza-9-[2-[bis(2,2,2-trifluoroethyl)phosphonyl-methoxy]ethyl]-6-(dimethylamino)purine], the inhibition at 10 µM in the data set on Hepatitis B virus (HBV) (setting [7]) came out at 100%. Also, the CC50 in data set [1] is above 1 mM.

With `Nc1ncnc2c1ncn2CCOCP(=O)(O)O` [PMEA, 9-(2-phosphonylmethoxy)ethyladenine], the inhibition at 10 µM in the data set on Hepatitis B virus (HBV) (HB611, 408 h) worked out at 83%. Further, the “Inhibitory ratio … (%)” value with HBV (serum of rats 1 h after single oral dose of 1 g/kg) stood at 35.5%. Moreover, the “effectiveness against HSV-1” value in [3] is reported as “effective”. Moreover, the “effectiveness against HSV-2” value in [4] is reported as “effective”. The “effectiveness against HIV” value in [5] was “effective”. Moreover, the “effectiveness against HBV” value in [6] is reported as “effective”.

Regarding `CCCCN(C)c1nc(N)nc2c1ncn2CCOCP(=O)(OCC(F)(F)F)OCC(F)(F)F` [Compound 15], the inhibition at 1 µM in the data set on Hepatitis B virus (HBV) (setting [9]) was determined as 86.7%. Besides, in [1], the CC50 was above 1 mM.

As for `CN(C)c1nc(N)nc2c1ncn2CCOCP(=O)(OCC(F)(F)F)OCC(F)(F)F` [Compound 11, 2-amino-9-[2-[bis(2,2,2-trifluoroethyl)phosphonylmethoxy]ethyl]-6-(dimethylamino)purine], the inhibition at 1 µM in the data set on Hepatitis B virus (HBV) (setting [9]) was 92%. In the data set with Hepatitis B virus (HBV) (setting [7]), the inhibition at 10 µM came to 100%. The CC50 in data set [1] is above 1 mM. For the same compound, the “Inhibitory ratio … (%)” value with HBV (setting [8]) was 95.6%. In data set [2] (mouse, in vivo), the “Test result (micronucleus test)” value was “Negative”.

These data come from patent US6197775A, “Phosphonate nucleotide derivatives” (Mitsubishi Chemical Corporation, priority 1995, dated 2001).
